Measured values taken from patent US12018093B2, “Hemiasterlin derivatives and antibody-drug conjugates including same” (priority 2017, dated 2024).
Several values for one entry are separate records, joined by “and”; a condition that tells them apart may be missing. Equal values may be shown once. Entries after “also recorded” stand apart in the source; their conditions may differ. Read-outs that look alike come from different tables or passages of the source.

Experiments:
Karpas-299 cells = experiment: Cellular toxicity test (1), CellTiter-Glo, Karpas-299; type: cell-based; conditions: Homo sapiens, 96 h, cultured 4 days, cell viability
Procedure: (§1) SU-DHL-1 cells (American Type Culture Collection, hereinafter, ATCC) and Karpas-299 cells (European Collection of Authenticated Cell Cultures, hereinafter, ECACC), which are human lymphoma cell lines, were cultured in RPMI 1640 (GIBCO) containing 10% fetal bovine serum (MP Biomedicals) (hereinafter, referred to as the “culture medium” in this test). SU-DHL-1 cells and Karpas-299 cells were prepared to be 2×10^6 cells/mL in the culture medium, and were added to a 96 well microplate for cell culturing in an amount of 50 μL for each well. Compounds of Examples or hemiasterlin 4 times diluted with the culture medium in 8 stages were added to the microplate in an amount of 50 μL for each well. To wells to which the test substance was not added, the culture medium was added in an amount of 50 μL for each well. These were cultured at 37 degree under 5% CO2 for 4 days. After culturing, the microplate was taken out from the incubator, and was left at rest at room temperature for 10 minutes. To each well, 50 μL of CellTiter-Glo Luminescent Cell Viability Assay (Promega) was added, and the resultant mixture was stirred. This mixture was incubated at a dark place for 20 minutes. Using a microplate luminometer, luminescence at each well was measured, thereby calculating the cell viability for each concentration of the test substance. From the cell viability, the IC50 value of the test substance was determined.
(§2) The IC50 value was calculated by the following formula: IC50(nM)=antilog(LOG10(a/b)×(e−d)/(c−d)+LOG10b) • a: concentration a of test substance • b: concentration b of test substance • c: cell viability upon adding test substance with concentration a • d: cell viability upon adding test substance with concentration b • e: intermediate value between maximum and minimum among cell viabilities upon • adding test substances with different concentrations (a and b are concentrations crossing the cell viability e, and a>b is indicated).
(§3) The cell viability at each concentration was calculated by the following formula: Cell Viability (%)=a′/b′×100 • a′: mean value of luminescence amount of wells to which test substance was added (n=6) • b′: mean value of luminescence amount of wells to which test substance was not added (n=6) • (n represents the number of evaluations performed per test substance concentration).

porcine tubulin [1] = target: T1, porcine tubulin (Sus scrofa, UniProt P02550+P02554); experiment: Activity for inhibiting microtubule polymerization using porcine tubulins (2), microtubule polymerization rate; conditions: 60 minutes after assay initiation; relative to wells without compound; lower = stronger inhibition
T1 sequence (P02554 whole entry): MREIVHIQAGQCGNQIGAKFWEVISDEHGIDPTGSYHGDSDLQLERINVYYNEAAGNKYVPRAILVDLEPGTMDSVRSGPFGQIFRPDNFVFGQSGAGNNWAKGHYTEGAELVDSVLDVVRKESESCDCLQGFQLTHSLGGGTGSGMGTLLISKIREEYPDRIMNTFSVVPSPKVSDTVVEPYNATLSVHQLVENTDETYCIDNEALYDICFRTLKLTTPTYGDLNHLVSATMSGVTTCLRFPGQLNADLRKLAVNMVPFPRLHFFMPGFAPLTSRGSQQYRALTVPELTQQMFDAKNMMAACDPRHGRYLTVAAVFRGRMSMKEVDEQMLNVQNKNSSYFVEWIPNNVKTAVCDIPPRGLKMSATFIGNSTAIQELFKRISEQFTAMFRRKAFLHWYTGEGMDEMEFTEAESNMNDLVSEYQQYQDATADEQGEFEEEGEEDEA
T1 sequence (P02550 whole entry): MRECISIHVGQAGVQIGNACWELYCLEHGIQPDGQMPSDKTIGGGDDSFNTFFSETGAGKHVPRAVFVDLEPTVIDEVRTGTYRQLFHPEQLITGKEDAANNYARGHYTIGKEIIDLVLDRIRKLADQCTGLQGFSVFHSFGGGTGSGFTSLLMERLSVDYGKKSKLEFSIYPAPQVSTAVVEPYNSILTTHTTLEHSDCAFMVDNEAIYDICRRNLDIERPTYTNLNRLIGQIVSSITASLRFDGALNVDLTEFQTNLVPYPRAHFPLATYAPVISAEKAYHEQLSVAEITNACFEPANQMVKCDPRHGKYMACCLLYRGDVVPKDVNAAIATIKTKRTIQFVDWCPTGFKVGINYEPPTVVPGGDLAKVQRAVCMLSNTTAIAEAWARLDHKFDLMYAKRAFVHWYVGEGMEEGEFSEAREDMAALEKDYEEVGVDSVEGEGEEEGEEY

SK-BR-3 cells = experiment: Cellular toxicity test (2), CellTiter-Glo, SK-BR-3; type: cell-based; conditions: Homo sapiens, 72 h, cultured 3 days, cell viability
Procedure: as §2, §3
SK-BR-3 cells (ATCC), which are a human breast cancer cell line, were cultured in McCoy's 5A (GIBCO) containing 10% fetal bovine serum (MP Biomedicals) (hereinafter, referred to as the “culture medium” in this test). SK-BR-3 cells were prepared to be 2×10^6 cells/mL in the culture medium, added to a 96 well microplate for cell culturing in an amount of 50 μL for each well, and cultured at 37 degree under 5% CO2 overnight, and then, compounds of Examples or hemiasterlin 4 times diluted with the culture medium in 8 stages were added to the microplate in an amount of 50 μL for each well. To wells to which the test substance was not added, the culture medium was added in an amount of 50 μL for each well. These were cultured at 37 degree under 5% CO2 for 3 days. After culturing, the microplate was taken out from the incubator, and was left at rest at room temperature for 10 minutes. 50 μL of CellTiter-Glo Luminescent Cell Viability Assay (Promega) was added, and the resultant mixture was stirred. This mixture was incubated at a dark place for 20 minutes. Using a microplate luminometer, luminescence at each well was measured, thereby calculating the cell viability for each concentration of the test substance. The IC50 value was calculated in accordance with the method described in Test Example 3.

[2] = Pharmacokinetic evaluation test using mice; type: in vivo; conditions: for half-life: single intravenous administration
Procedure: A pharmacokinetic evaluation test was performed by single intravenous administration of Example 4 at a dose of 1.0 mg/kg to mice. A calibration curve was made from measurements of Example 4 with known concentration, and by interpolating measurements of each specimen to this, the amount of the compound contained in unit volume of each plasma was calculated using LC-MS. Pharmacokinetics of compound 14 and hemiasterlin were similarly evaluated.
(n.d. in the tables means less than the detection limit value (0.5 ng/mL).)

porcine tubulin [3] = target: T1, porcine tubulin; experiment: Activity for inhibiting microtubule polymerization using porcine tubulins (1); type: biochemical; parameters: purchased Cytoskeleton Inc. BK006P; conditions: compound 0.91 μM; absorbance at 340 nm, 37° C.; FIG. 1 and FIG. 2
SU-DHL-1 cells = experiment: Cellular toxicity test (1), CellTiter-Glo, SU-DHL-1; type: cell-based; conditions: Homo sapiens, 96 h, cultured 4 days, cell viability
Procedure: as §1, §2, §3

in vitro = conditions: PAMPA, pH 7.4
Procedure: By the parallel artificial membrane permeability assay (PAMPA), the membrane permeability of compounds of Examples was examined as follows: To the donor plate, System solution (pION inc.) and GIT Lipid-0 (pION inc.) were added in an amount of 200 μL and 4 μL for each well, respectively. To the acceptor plate, Acceptor Sink Buffer (pION inc.) was added in an amount of 200 μL. Both plates were superposed and incubated at 37° C. for 4 hours, and then, UVs in the solutions on the side of acceptor and on the side of donor were measured with an UV plate reader (190 to 500 nm). Compounds with poor UV absorption were measured by LC-MS. The permeability coefficient Pe (10^−6 cm/sec) of the drug was calculated by the following formula.

CN[C@H](C(=O)N[C@H](C(=O)N(C)[C@H](/C=C(\C)C(=O)O)C(C)C)C(C)(C)C)C(C)(C)c1cn(C)c2ccccc12 [Hemiasterlin, hemiasterlin]
IC50 (Karpas-299 cells): 0.032 nM | Microtubule polymerization rate (%) (porcine tubulin [1]): 3% | IC50 (SK-BR-3 cells): 0.088 nM | half-life ([2]; mouse, plasma, 1 mg/kg): < 13.1 h | concentration at 0.5 hr ([2]; mouse, plasma, iv, 1 mg/kg, single intravenous 1.0 mg/kg, 0.5 hr, read-out: Blood concentration, mean value): 0.065 µg/mL | concentration at 2 hr ([2]; mouse, plasma, iv, 1 mg/kg, single intravenous 1.0 mg/kg, 2 hr, read-out: Blood concentration, individual mice 1-3): 0.0251 µg/mL | concentration at 2 hr ([2]; mouse, plasma, iv, 1 mg/kg, single intravenous 1.0 mg/kg, 2 hr, read-out: Blood concentration, mean value): 0.0258 µg/mL | concentration at 6 hr ([2]; mouse, plasma, iv, 1 mg/kg, single intravenous 1.0 mg/kg, 6 hr, read-out: Blood concentration, individual mice 1-3): 0.0189 µg/mL | concentration at 6 hr ([2]; mouse, plasma, iv, 1 mg/kg, single intravenous 1.0 mg/kg, 6 hr, read-out: Blood concentration, mean value): 0.0224 µg/mL | concentration at 24 hr ([2]; mouse, plasma, iv, 1 mg/kg, single intravenous 1.0 mg/kg, 24 hr, read-out: Blood concentration, mean value): 0.0083 µg/mL | Blood concentration, individual mice 1-3 ([2]; single intravenous 1.0 mg/kg, 0.5 hr, 1 mg/kg): 0.0545 µg/mL and 0.0998 µg/mL and 0.0406 µg/mL | Blood concentration, individual mice 1-3 ([2]; single intravenous 1.0 mg/kg, 2 hr, 1 mg/kg): 0.0222 µg/mL and 0.0302 µg/mL | Blood concentration, individual mice 1-3 ([2]; single intravenous 1.0 mg/kg, 6 hr, 1 mg/kg): 0.0182 µg/mL and 0.0302 µg/mL | Blood concentration, individual mice 1-3 ([2]; single intravenous 1.0 mg/kg, 24 hr, 1 mg/kg): 0.0024 µg/mL and 0.0128 µg/mL and 0.0095 µg/mL

CCOC(=O)[C@@H](CCC(=O)O)NC(=O)/C(C)=C/[C@H](C(C)C)N(C)C(=O)[C@@H](NC(=O)[C@@H](NC)C(C)(C)c1cn(C)c2ccccc12)C(C)(C)C [Example 14]
activity for inhibiting microtubule polymerization (porcine tubulin [3]): exhibited activities for inhibiting microtubule polymerization; also recorded: exhibited polymerization inhibitory activity concentration-dependently | IC50 (SU-DHL-1 cells): 0.24 nM | IC50 (Karpas-299 cells): 0.12 nM | IC50 (SK-BR-3 cells): 1.03 nM | half-life ([2]; mouse, plasma, 1 mg/kg): < 0.5 h | Blood concentration of Example 14 ([2]; single intravenous administration of Example 14, 0.5 hr, animal 1): n.d. (less than the detection limit value (0.5 ng/mL)) | Blood concentration of Example 14 ([2]; single intravenous administration of Example 14, 0.5 hr, animal 2): n.d. (less than the detection limit value (0.5 ng/mL)) | Blood concentration of Example 14 ([2]; single intravenous administration of Example 14, 0.5 hr, animal 3): n.d. (less than the detection limit value (0.5 ng/mL)) | Blood concentration of Example 14, mean ([2]; single intravenous administration of Example 14, 0.5 hr): n.d. (less than the detection limit value (0.5 ng/mL)) | Blood concentration of Example 14 ([2]; single intravenous administration of Example 14, 2 hr, animal 1): n.d. (less than the detection limit value (0.5 ng/mL)) | Blood concentration of Example 14 ([2]; single intravenous administration of Example 14, 2 hr, animal 2): n.d. (less than the detection limit value (0.5 ng/mL)) | Blood concentration of Example 14 ([2]; single intravenous administration of Example 14, 2 hr, animal 3): n.d. (less than the detection limit value (0.5 ng/mL)) | Blood concentration of Example 14, mean ([2]; single intravenous administration of Example 14, 2 hr): n.d. (less than the detection limit value (0.5 ng/mL)) | Blood concentration of Example 14 ([2]; single intravenous administration of Example 14, 6 hr, animal 1): n.d. (less than the detection limit value (0.5 ng/mL)) | Blood concentration of Example 14 ([2]; single intravenous administration of Example 14, 6 hr, animal 2): n.d. (less than the detection limit value (0.5 ng/mL)) | Blood concentration of Example 14 ([2]; single intravenous administration of Example 14, 6 hr, animal 3): n.d. (less than the detection limit value (0.5 ng/mL)) | Blood concentration of Example 14, mean ([2]; single intravenous administration of Example 14, 6 hr): n.d. (less than the detection limit value (0.5 ng/mL)) | Blood concentration of Example 14 ([2]; single intravenous administration of Example 14, 24 hr, animal 1): n.d. (less than the detection limit value (0.5 ng/mL)) | Blood concentration of Example 14 ([2]; single intravenous administration of Example 14, 24 hr, animal 2): n.d. (less than the detection limit value (0.5 ng/mL)) | Blood concentration of Example 14 ([2]; single intravenous administration of Example 14, 24 hr, animal 3): n.d. (less than the detection limit value (0.5 ng/mL)) | Blood concentration of Example 14, mean ([2]; single intravenous administration of Example 14, 24 hr): n.d. (less than the detection limit value (0.5 ng/mL)) | Papp (in vitro): 45 nm/s

CN[C@H](C(=O)N[C@H](C(=O)N(C)[C@H](/C=C(\C)C(=O)N[C@@H](CS)C(=O)O)C(C)C)C(C)(C)C)C(C)(C)c1cn(C)c2ccccc12 [Example 23]
activity for inhibiting microtubule polymerization (porcine tubulin [3]): exhibited activities for inhibiting microtubule polymerization | IC50 (SU-DHL-1 cells): > 50 nM | IC50 (SK-BR-3 cells): 143 nM

CN[C@H](C(=O)N[C@H](C(=O)N(C)[C@H](/C=C(\C)C(=O)N[C@@H](CS)C(=O)OC)C(C)C)C(C)(C)C)C(C)(C)c1cn(C)c2ccccc12 [Example 22]
IC50 (SU-DHL-1 cells): 1.22 nM | IC50 (SK-BR-3 cells): 1.92 nM

CCOC(=O)CC[C@@H](NC(=O)/C(C)=C/[C@H](C(C)C)N(C)C(=O)[C@@H](NC(=O)[C@@H](NC)C(C)(C)c1cn(C)c2ccccc12)C(C)(C)C)C(=O)OCC [Example 9]
activity for inhibiting microtubule polymerization (porcine tubulin [3]): exhibited activities for inhibiting microtubule polymerization

CN[C@H](C(=O)N[C@H](C(=O)N(C)[C@H](/C=C(\C)C(=O)N[C@@H](CC(=O)O)C(=O)O)C(C)C)C(C)(C)C)C(C)(C)c1cn(C)c2ccccc12 [Example 11]
IC50 (SU-DHL-1 cells): 158 nM | IC50 (Karpas-299 cells): 220 nM | Microtubule polymerization rate (%) (porcine tubulin [1]): 5% | IC50 (SK-BR-3 cells): 157 nM

CN[C@H](C(=O)N[C@H](C(=O)N(C)[C@H](/C=C(\C)C(=O)N[C@H](CCC(=O)O)C(=O)O)C(C)C)C(C)(C)C)C(C)(C)c1cccc(C(F)(F)F)c1 [Example 55]
IC50 (Karpas-299 cells): 34.6 nM | Microtubule polymerization rate (%) (porcine tubulin [1]): 16% | Papp (in vitro): < 1 nm/s
